Measured values published in patent US10259848B2, “Compositions and methods comprising hydrocarbon-stapled polypeptides” (Dana-Farber Cancer Institute, Inc., priority 2008, dated 2019).
Like-named read-outs stand apart in the source and are kept apart here. Positions of bridges follow the written chain, without caps; N, C: chain ends. Non-standard residues stand in square brackets, D forms with d. Residues, ends and D or L forms follow the SMILES beside them. No end group written: not given here. S5 = C=CCCC[C@](C)(N)C(=O)O; Nle = CCCC[C@H](N)C(=O)O

Columns and labels:
[1] = Circular dichroism, calculated α-helical content; assay type: physicochemical; conditions: for α-helical content: comparative CD spectra, 20-mer residues 626-645
Description: The α-helicity of stapled modified polypeptides can be compared to their unmodified counterparts by circular dichroism. CD spectra can be obtained on a Jasco J-710 or Aviv spectropolarimeter at 20° C. using the following standard measurement parameters: wavelength, 190-260 nm; step resolution, 0.5 nm; speed, […]; accumulations, 10; response, 1 sec; bandwidth, 1 nm; path length, 0.1 cm. The α-helical content of each peptide is calculated by dividing the mean residue ellipticity [Θ]222obs by the reported [Θ]222obs for a model helical peptide (Forood, B., E. J. Feliciano, and K. P. Nambiar, PNAS, 1993. 90(3): p. 838-842; J. Martin Scholtz, Biopolymers, 1991. 31(13): p. 1463-1470; Lawless, M. K., et al., Biochemistry, 1996. 35(42): p. 13697-13708) or using, for example, the Aviv machine using CDNN software developed by Brohm in order to deduce five different secondary structure fractions (helix, parallel and antiparallel beta-sheet, beta-turn and random coil). Protein Engineering, 1992. 5(3); p. 191-195
To optimize the activity of tSAH-gp41 peptides, an alternative strategy based upon inserting one or more hydrocarbon staples into the full-length gp41-HR-2 constructs was pursued (FIG. 11, 12).

[2] = system: HIV-1 HXBc2; experiment: Luciferase-based HIV infectivity assay, HXBc2; assay type: cell-based; conditions: compared to T20
Description: Recombinant HIV-1 bearing the envelope glycoproteins from three distinct HIV-1 strains, HXBc2, ADA, and HXBc2P 3.2, and a negative control virus bearing the amphotropic murine leukemia virus (A-MLV) envelope glycoproteins, were evaluated.

[3] = system: syncytia formation; experiment: HIV syncytial formation assay; assay type: cell-based, HIV-1
Description: Functional assays can also be used to evaluate the modified polypeptides activity. In culture, multinucleated giant cells or “syncytia” form as a result of direct cell-cell fusion between HIV-1-infected and uninfected CD4-positive cells. In the syncytia formation assay, an indicator cell line expressing the CD4 receptor, and a fusogenic cell line that lacks the CD4 receptor but contains HIV-1 proteins on the surface, fuse to generate 70-100 multinucleated giant cells in culture within 48 h. Syncytia are then counted using an inverted microscope. The ability of stabilized alpha helix of gp41 (SAH-gp41) compounds to inhibit syncytia formation in a dose-responsive fashion is used as a functional measure of fusion inhibition, for which IC50s can be determined and compared with peptides T20 and T649 (Brenner, T. J., et al. The Lancet, 1991. 337(8748): p. 1001-1005; Madani, N., et al., Journal of Virology, 2007. 81(2): p. 532-538).
The compounds of the invention were assayed for inhibition of syncytial formation using methods well known to those skilled in the art. Equal amounts of either T20/gp41(638-673) or SAH-gp41(626-645)A were added to the media.

[4] = FIGURE 16C
From the text: Table printed on a drawing sheet, FIGURE 16C
First reader's note: The sheet prints two blocks (626-662 and 638-673 series) under one head; per the description the half-lives are in the presence of chymotrypsin at pH 7.

[5] = FIGURE 16F
From the text: Table printed on a drawing sheet, FIGURE 16F

[6] = system: pepsin; experiment: Protease exposure under acidic conditions: pepsin, pH 2; conditions: pepsin solution (protease exposure under acidic conditions)

CCCC[C@H](NC(C)=O)C(=O)N[C@H](C(=O)N[C@@H](Cc1c[nH]c2ccccc12)C(=O)N[C@@]1(C)CCCC=CCCC[C@@](C)(C(=O)N[C@@H](CCC(=O)O)C(=O)N[C@H](C(=O)N[C@@H](CC(N)=O)C(=O)N[C@@H](CC(N)=O)C(=O)N[C@@H](Cc2ccc(O)cc2)C(=O)N[C@H](C(=O)N[C@@H](CO)C(=O)N[C@@H](CC(C)C)C(=O)N[C@H](C(=O)N[C@@H](Cc2c[nH]cn2)C(=O)N[C@@H](CO)C(=O)N[C@@H](CC(C)C)C(N)=O)[C@@H](C)CC)[C@@H](C)O)[C@@H](C)CC)NC(=O)[C@H](CC(=O)O)NC(=O)[C@H](Cc2c[nH]c3ccccc23)NC(=O)[C@H](CCC(=O)O)NC1=O)[C@@H](C)O [SAH-gp41(626-645)(A)] (Ac-[Nle]TW[S5]EWD[S5]EINNYTSLIHSL-NH2; staple 4-8; N-terminus and C-terminus assumed)
α-helical content [1]: 48% | anti-HXBc2 activity [2]: significant anti-HXBc2 activity | inhibition of syncytia formation (words) [3]: markedly enhanced inhibitory activity | inhibition of syncytia formation (words) ([3]; listed as SAH-gp41(626-645)A): inhibited syncytial formation more so than unmodified control polypeptides

SAH-gp41(626-662)(A,F): doubly stapled gp41(626-662) HIV-1 fusion inhibitor peptide (LTWAEWDAEINNYTSLIHSLIEESQNQAEKNAQELLE; not fully specified (bridges); also: doubly stapled, places not given here)
half-life [4]: 5.02 h | half-life [5]: 34 h

enfuvirtide
calculated α-helical content ([1]; CD spectra at physiologic pH): ~25% | half-life at 25 μM [6]: 4 min

gp41(626-645): unstapled 20-mer truncation of T649v consisting of residues 626-645 ([Nle]TW[Nle]EWDREINNYTSLIHSL) [reference compound]
α-helical content [1]: 20% | inhibition of syncytia formation (words) [3]: only modest anti-syncytial activity
